Where two headings read alike, the source gives them in different places.
Columns and labels:
SARS-CoV-2 nsp3-mac1 [1] = target: T1, SARS-CoV-2 nsp3-mac1 (Severe acute respiratory syndrome coronavirus 2, UniProt P0DTD1); assay: biochemical; set-up: SARS-CoV-2 nsp3 macrodomain TR-FRET single point, per cent inhibition, n=2
SARS-CoV-2 nsp3-mac1 [2] = target: T1, SARS-CoV-2 nsp3-mac1; assay: biochemical; type: biochemical; conditions: SARS-CoV-2 nsp3 macrodomain TR-FRET single point
[3] = read-out: perc_inhibition_mean, batch_name=ASAP-0000401-001
[4] = read-out: perc_inhibition_mean, batch_name=ASAP-0000402-001
[5] = read-out: perc_inhibition_mean, batch_name=ASAP-0000403-001
[6] = read-out: perc_inhibition_mean, batch_name=ASAP-0000404-001
[7] = read-out: perc_inhibition_mean, batch_name=ASAP-0000405-001
[8] = read-out: perc_inhibition_mean, batch_name=ASAP-0000406-001
[9] = read-out: perc_inhibition_mean, batch_name=ASAP-0000407-001
[10] = read-out: perc_inhibition_mean, batch_name=ASAP-0000408-001
[11] = read-out: perc_inhibition_mean, batch_name=ASAP-0000409-001
[12] = read-out: perc_inhibition_mean, batch_name=ASAP-0000410-001
[13] = read-out: perc_inhibition_mean, batch_name=ASAP-0000411-001
[14] = read-out: perc_inhibition_mean, batch_name=ASAP-0000412-001
[15] = read-out: perc_inhibition_mean, batch_name=ASAP-0000413-001
[16] = read-out: perc_inhibition_mean, batch_name=ASAP-0000414-001
[17] = read-out: perc_inhibition_mean, batch_name=ASAP-0000415-001
[18] = read-out: perc_inhibition_mean, batch_name=ASAP-0000416-001
[19] = read-out: perc_inhibition_mean, batch_name=ASAP-0000417-001

Row | SMILES | perc_inhibition_mean (SARS-CoV-2 nsp3-mac1 [2]; concentration 49.75 uM) [%] | perc_inhibition_mean (SARS-CoV-2 nsp3-mac1 [2]; concentration 99.5 uM) [%] | other results
1 | O=C(CCN(Cc1cccc(Cl)c1)C(=O)C1CCC(O)CC1)N1CCNCC1 (centres unmarked) [ASAP-0000401] | -4.315 | 0.465 | inhibition at 49.75 µM (SARS-CoV-2 nsp3-mac1 [1]; [3]): -4.32%; inhibition at 99.5 µM (SARS-CoV-2 nsp3-mac1 [1]; [3]): 0.465%
2 | O=C(c1ccnc(S)c1)N1CCC(c2ccn3ncc(C(=O)N4CCCCC4)c3c2)CC1 [ASAP-0000402] | 20.252 | 35.496 | inhibition at 49.75 µM (SARS-CoV-2 nsp3-mac1 [1]; [4]): 20.3%; inhibition at 99.5 µM (SARS-CoV-2 nsp3-mac1 [1]; [4]): 35.5%
3 | O=C1CCN(C(=O)c2cnn3ccc(C4CCN(C(=O)c5ccccc5)CC4)cc23)CCN1 [ASAP-0000403] | -2.402 | -7.808 | inhibition at 49.75 µM (SARS-CoV-2 nsp3-mac1 [1]; [5]): -2.4%; inhibition at 99.5 µM (SARS-CoV-2 nsp3-mac1 [1]; [5]): -7.81%
4 | O=C(c1ccccc1)N1CCC(c2ccn3ncc(C(=O)N4CCn5ncnc5C4)c3c2)CC1 [ASAP-0000404] | -3.769 | -3.519 | inhibition at 49.75 µM (SARS-CoV-2 nsp3-mac1 [1]; [6]): -3.77%; inhibition at 99.5 µM (SARS-CoV-2 nsp3-mac1 [1]; [6]): -3.52%
5 | O=C(c1ccncc1)N1CCC(c2ccn3ncc(C(=O)N4CCCCC4)c3c2)CC1 [ASAP-0000405] | 10.851 | 26.497 | inhibition at 49.75 µM (SARS-CoV-2 nsp3-mac1 [1]; [7]): 10.9%; inhibition at 99.5 µM (SARS-CoV-2 nsp3-mac1 [1]; [7]): 26.5%
6 | CCN1CCN(C(=O)c2cnn3ccc(C4CCN(C(=O)c5ccccc5)CC4)cc23)CC1=O [ASAP-0000406] | -8.634 | -3.464 | inhibition at 49.75 µM (SARS-CoV-2 nsp3-mac1 [1]; [8]): -8.63%; inhibition at 99.5 µM (SARS-CoV-2 nsp3-mac1 [1]; [8]): -3.46%
7 | C[C@@H](NC(=O)c1cnn2ccc(C3CCN(C(=O)c4ccccc4)CC3)cc12)c1cc[nH]n1 [ASAP-0000407] | -4.99 | -2.773 | inhibition at 49.75 µM (SARS-CoV-2 nsp3-mac1 [1]; [9]): -4.99%; inhibition at 99.5 µM (SARS-CoV-2 nsp3-mac1 [1]; [9]): -2.77%
8 | O=C(CCN(Cc1cccc(Cl)c1)C(=O)[C@@H]1CC1(F)F)N1CCNCC1 [ASAP-0000408] | -2.073 | -3.764 | inhibition at 49.75 µM (SARS-CoV-2 nsp3-mac1 [1]; [10]): -2.07%; inhibition at 99.5 µM (SARS-CoV-2 nsp3-mac1 [1]; [10]): -3.76%
9 | O=C(CCN(Cc1cccc(Cl)c1)C(=O)c1ccc(O)cc1)N1CCNCC1 [ASAP-0000409] | -0.343 | -1.632 | inhibition at 49.75 µM (SARS-CoV-2 nsp3-mac1 [1]; [11]): -0.343%; inhibition at 99.5 µM (SARS-CoV-2 nsp3-mac1 [1]; [11]): -1.63%
10 | Cc1nsc(N(C)C(=O)c2cnn3ccc(C4CCN(C(=O)c5ccccc5)CC4)cc23)n1 [ASAP-0000410] | -10.512 | -11.519 | inhibition at 49.75 µM (SARS-CoV-2 nsp3-mac1 [1]; [12]): -10.5%; inhibition at 99.5 µM (SARS-CoV-2 nsp3-mac1 [1]; [12]): -11.5%
11 | O=C(c1ccccc1)N1CCC(c2ccn3ncc(C(=O)N4CCc5cccnc54)c3c2)CC1 [ASAP-0000411] | -4.67 | -8.02 | inhibition at 49.75 µM (SARS-CoV-2 nsp3-mac1 [1]; [13]): -4.67%; inhibition at 99.5 µM (SARS-CoV-2 nsp3-mac1 [1]; [13]): -8.02%
12 | CN(C[C@H]1CCCN1)C(=O)c1cnn2ccc(C3CCN(C(=O)c4ccccc4)CC3)cc12 [ASAP-0000412] | -7.471 | -6.586 | inhibition at 49.75 µM (SARS-CoV-2 nsp3-mac1 [1]; [14]): -7.47%; inhibition at 99.5 µM (SARS-CoV-2 nsp3-mac1 [1]; [14]): -6.59%
13 | O=C1CC[C@@H](CNC(=O)c2cnn3ccc(C4CCN(C(=O)c5ccccc5)CC4)cc23)N1 [ASAP-0000413] | -2.317 | -1.468 | inhibition at 49.75 µM (SARS-CoV-2 nsp3-mac1 [1]; [15]): -2.32%; inhibition at 99.5 µM (SARS-CoV-2 nsp3-mac1 [1]; [15]): -1.47%
14 | Cc1[nH]ncc1CN(C)C(=O)c1cnn2ccc(C3CCN(C(=O)c4ccccc4)CC3)cc12 [ASAP-0000414] | -1.138 | 0.307 | inhibition at 49.75 µM (SARS-CoV-2 nsp3-mac1 [1]; [16]): -1.14%; inhibition at 99.5 µM (SARS-CoV-2 nsp3-mac1 [1]; [16]): 0.307%
15 | O=C(c1cccnc1O)N1CCC(c2ccn3ncc(C(=O)N4CCCCC4)c3c2)CC1 [ASAP-0000415] | -7.036 | -3.94 | inhibition at 49.75 µM (SARS-CoV-2 nsp3-mac1 [1]; [17]): -7.04%; inhibition at 99.5 µM (SARS-CoV-2 nsp3-mac1 [1]; [17]): -3.94%
16 | Cc1ccc(C(=O)N(CCC(=O)N2CCNCC2)Cc2cccc(Cl)c2)[nH]1 [ASAP-0000416] | -5.904 | -3.936 | inhibition at 49.75 µM (SARS-CoV-2 nsp3-mac1 [1]; [18]): -5.9%; inhibition at 99.5 µM (SARS-CoV-2 nsp3-mac1 [1]; [18]): -3.94%
17 | O=C(CCN(Cc1cccc(Cl)c1)C(=O)[C@@H]1C[C@@H](O)CN1)N1CCNCC1 [ASAP-0000417] | -3.538 | 4.743 | inhibition at 49.75 µM (SARS-CoV-2 nsp3-mac1 [1]; [19]): -3.54%; inhibition at 99.5 µM (SARS-CoV-2 nsp3-mac1 [1]; [19]): 4.74%

From doi:10.1101/2024.08.19.608619, “Discovery of potent SARS-CoV-2 nsp3 macrodomain inhibitors uncovers lack of translation to cellular antiviral response” (bioRxiv, 2024)
